Drawing on PubChem BioAssay AID248 (DTP/NCI, 2004), this text covers T/C for 21 compounds.

“And” between values parts separate entries of the source, which are not always exact repeats. Identical values can stand only once. Inconclusive results and toxic doses are left out.

In this assay the test system is L1210 leukemia ip in BDF1 mice, survival T/C. The experiment in a line: NCI In Vivo Anticancer Drug Screen. Data for tumor model L1210 Leukemia (intraperitoneal) in B6D2F1 (BDF1) mice. Particulars: endpoint: mean survival time, higher = longer survival. In a few lines: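 Tumor cells were implanted, animals were treated, and survival was followed. The result divides the treated measurement by the vehicle-control measurement.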

[1] abbreviates: dose: 100.0 mg/kg/injection, schedule: Q01DX009 (ip), vehicle: saline with Tween-80.
The mark [2] stands for this setting: dose: 100.0 mg/kg/injection, schedule: Q04DX003 (ip), vehicle: saline with Tween-80.
[3] abbreviates: dose: 200.0 mg/kg/injection, schedule: Q01DX009 (ip), vehicle: saline with Tween-80.
Where [4] appears, read: dose: 400.0 mg/kg/injection, schedule: Q04DX003 (ip), vehicle: saline with Tween-80.
The mark [5] stands for this setting: dose: 200.0 mg/kg/injection, schedule: Q04DX003 (ip), vehicle: saline with Tween-80.
[6] abbreviates: dose: 100.0 mg/kg/injection, schedule: Q01DX001 (ip), vehicle: saline.
[7] abbreviates: dose: 100.0 mg/kg/injection, schedule: Q01DX009 (ip), vehicle: Klucel (hydroxypropylcellulose) (HPC).
[8] abbreviates: dose: 200.0 mg/kg/injection, schedule: Q01DX009 (ip), vehicle: Klucel (hydroxypropylcellulose) (HPC).
Setting [9] is: dose: 400.0 mg/kg/injection, schedule: Q01DX009 (ip), vehicle: Klucel (hydroxypropylcellulose) (HPC).
The mark [10] stands for this setting: dose: 200.0 mg/kg/injection, schedule: Q01DX001 (ip), vehicle: saline.
Setting [11] is: dose: 100.0 mg/kg/injection, schedule: Q04DX002 (ip), vehicle: Klucel (hydroxypropylcellulose) (HPC).
Setting [12] is: dose: 200.0 mg/kg/injection, schedule: Q04DX002 (ip), vehicle: Klucel (hydroxypropylcellulose) (HPC).
The mark [13] stands for this setting: dose: 400.0 mg/kg/injection, schedule: Q04DX002 (ip), vehicle: Klucel (hydroxypropylcellulose) (HPC).
Where [14] appears, read: dose: 100.0 mg/kg/injection, schedule: Q04DX003 (ip), vehicle: Klucel (hydroxypropylcellulose) (HPC).
The mark [15] stands for this setting: dose: 200.0 mg/kg/injection, schedule: Q04DX003 (ip), vehicle: Klucel (hydroxypropylcellulose) (HPC).
The mark [16] stands for this setting: dose: 400.0 mg/kg/injection, schedule: Q04DX003 (ip), vehicle: Klucel (hydroxypropylcellulose) (HPC).

For the compound `COC(=O)N1c2ccccc2C=CC1C#N` (stereo not drawn), the T/C (dose: 44.0 mg/kg/injection, schedule: Q04DX002 (ip), vehicle: saline with Tween-80) was 151 % of control; the T/C (dose: 44.0 mg/kg/injection, schedule: Q04DX003 (ip), vehicle: saline with Tween-80) is 109 % of control; the T/C (dose: 44.0 mg/kg/injection, schedule: Q04DX003 (ip), vehicle: saline) was 108 % of control; the T/C (dose: 50.0 mg/kg/injection, schedule: Q01DX009 (ip), vehicle: saline with Tween-80) was 104 % of control; the T/C (dose: 66.0 mg/kg/injection, schedule: Q04DX002 (ip), vehicle: saline with Tween-80) was 173 % of control; the T/C (dose: 66.0 mg/kg/injection, schedule: Q04DX003 (ip), vehicle: saline with Tween-80) is 103 % of control. Moreover, the T/C (dose: 66.0 mg/kg/injection, schedule: Q04DX003 (ip), vehicle: saline) is 101 % of control; the T/C (dose: 100.0 mg/kg/injection, schedule: Q01DX001 (ip), vehicle: saline with Tween-80) is 106 % of control; the T/C under setting [1] is 96 % of control; the T/C (dose: 100.0 mg/kg/injection, schedule: Q04DX002 (ip), vehicle: saline with Tween-80) was 189 % of control; the T/C under setting [2] is 109 % of control and 209 % of control; the T/C (dose: 100.0 mg/kg/injection, schedule: Q04DX003 (ip), vehicle: saline) was 106 % of control. In addition, the T/C is 106 % of control (dose: 200.0 mg/kg/injection, schedule: Q01DX001 (ip), vehicle: saline with Tween-80); 102 % of control under setting [3]; 156 % of control (dose: 200.0 mg/kg/injection, schedule: Q04DX002 (ip), vehicle: saline with Tween-80); 111 % of control (dose: 200.0 mg/kg/injection, schedule: Q04DX003 (ip), vehicle: saline); 104 % of control (dose: 400.0 mg/kg/injection, schedule: Q01DX001 (ip), vehicle: saline with Tween-80); 96 % of control under setting [4].

Consider `Cc1cc(C)c2[nH]c(=O)c(Br)c(C)c2c1`, for which the T/C by setting is: (dose: 100.0 mg/kg/injection, schedule: Q01DX001 (ip), vehicle: other) 93 % of control; (dose: 200.0 mg/kg/injection, schedule: Q01DX001 (ip), vehicle: other) 98 % of control; (dose: 400.0 mg/kg/injection, schedule: Q01DX001 (ip), vehicle: other) 106 % of control.

On to `CCCCCCCC/C=C\CCCCCCCC(=O)OC`, for which the T/C under setting [1] is 91 % of control; the T/C under setting [2] is 96 % of control; the T/C under setting [3] is 92 % of control; the T/C under setting [5] is 100 % of control; the T/C (dose: 400.0 mg/kg/injection, schedule: Q01DX009 (ip), vehicle: saline with Tween-80) is 95 % of control; the T/C under setting [4] was 98 % of control.

Consider `CC(/C=N\N)=N\N`, for which the T/C (dose: 15.0 mg/kg/injection, schedule: Q01DX Z (ip), vehicle: saline) is 91 % of control; the T/C (dose: 15.0 mg/kg/injection, schedule: Q01DX Z (oral), vehicle: saline) is 101 % of control; the T/C (dose: 30.0 mg/kg/injection, schedule: Q01DX Z (ip), vehicle: saline) was 108 % of control; the T/C (dose: 30.0 mg/kg/injection, schedule: Q01DX Z (oral), vehicle: saline) was 116 % of control; the T/C (dose: 60.0 mg/kg/injection, schedule: Q01DX Z (ip), vehicle: saline) was 91 % of control.

Take `CC[CH2][Pb]([CH2]CC)([CH2]CC)[O]C(C)=O`: the T/C runs as follows: (dose: 6.25 mg/kg/injection, schedule: Q04DX003 (ip), vehicle: Klucel (hydroxypropylcellulose) (HPC)) 100 % of control; (dose: 12.5 mg/kg/injection, schedule: Q04DX003 (ip), vehicle: Klucel (hydroxypropylcellulose) (HPC)) 103 % of control; (dose: 50.0 mg/kg/injection, schedule: Q01DX001 (ip), vehicle: saline) 94 % of control; under setting [6], 94 % of control.

Turning to `O=C(CC(C[N+](=O)[O-])c1ccccc1)c1ccc(Cl)cc1` (stereo not drawn), the T/C is 96 % of control under setting [7], 90 % of control under setting [8] and 92 % of control under setting [9].

On to `NC(=O)N1CCCC1`, for which the T/C under setting [6] is 98 % of control; the T/C under setting [10] was 95 % of control; the T/C (dose: 400.0 mg/kg/injection, schedule: Q01DX001 (ip), vehicle: saline) is 95 % of control.

As to `O=c1c2ncn(C3OC(CO)C(O)C3O)c2nc2n1N=CC(O)N2` (stereo not drawn), the T/C runs as follows: (dose: 100.0 mg/kg/injection, schedule: Q01DX005 (ip), vehicle: saline) 120 % of control; (dose: 200.0 mg/kg/injection, schedule: Q01DX005 (ip), vehicle: saline) 120 % of control.

Take `CN(Cc1ccc(Cl)cc1)C(=S)Nc1ccccc1`: the T/C is 114 % of control under setting [11], 92 % of control under setting [12] and 96 % of control under setting [13].

On to `CCOC(=O)C1CC(C(=O)OCC)C(=O)C1=O` (stereo not drawn), for which the T/C runs as follows: under setting [2], 100 % of control; under setting [5], 99 % of control; under setting [4], 86 % of control.

Turning to `O=C(O)CCC(NC(=O)OCc1ccccc1)C(=O)OCc1ccccc1` (stereo not drawn), the T/C runs as follows: (dose: 50.0 mg/kg/injection, schedule: Q01DX009 (ip), vehicle: Klucel (hydroxypropylcellulose) (HPC)) 101 % of control; under setting [7], 103 % of control; under setting [14], 101 % of control; under setting [8], 90 % of control; under setting [15], 105 % of control.

As for `NS(=O)(=O)c1ccccc1`, the T/C runs as follows: (dose: 100.0 mg/kg/injection, schedule: Q04DX002 (ip), vehicle: saline) 105 % of control; under setting [14], 101 % of control; (dose: 200.0 mg/kg/injection, schedule: Q04DX002 (ip), vehicle: saline) 105 % of control; under setting [15], 103 % of control; (dose: 400.0 mg/kg/injection, schedule: Q04DX002 (ip), vehicle: saline) 109 % of control; under setting [16], 92 % of control.

As for `CCOC(=O)C(C#N)C(C)(C[N+](=O)[O-])C1CC1` (stereo not drawn), the T/C reads like this: (dose: 0.78 mg/kg/injection, schedule: Q04DX003 (ip), vehicle: saline with Tween-80) 96 % of control; (dose: 1.56 mg/kg/injection, schedule: Q04DX003 (ip), vehicle: saline with Tween-80) 101 % of control; (dose: 3.13 mg/kg/injection, schedule: Q04DX003 (ip), vehicle: saline with Tween-80) 97 % of control.

For the compound `COc1ccc(Nc2ccc([N+](=O)[O-])cc2[N+](=O)[O-])cc1`, the T/C is 96 % of control under setting [2], 94 % of control under setting [5] and 91 % of control under setting [4].

For `O=C(N/N=C\c1ccccc1O)c1ccco1`, the T/C (dose: 100.0 mg/kg/injection, schedule: Q01DX001 (ip), vehicle: carboxymethylcellulose (CMC)) was 98 % of control; the T/C (dose: 200.0 mg/kg/injection, schedule: Q01DX001 (ip), vehicle: carboxymethylcellulose (CMC)) is 95 % of control; the T/C (dose: 400.0 mg/kg/injection, schedule: Q01DX001 (ip), vehicle: carboxymethylcellulose (CMC)) was 95 % of control.

In the case of `O=C1N=C(c2ccccc2)OC1C(=O)c1ccccc1` (stereo not drawn), the T/C runs as follows: under setting [6], 110 % of control; under setting [10], 94 % of control.

Consider `c1ccc(CCN2COc3c(ccc4cccnc34)C2)cc1`, for which the T/C is, setting by setting: under setting [2], 102 % of control; under setting [4], 90 % of control.

Take `Clc1ccc(C2(CBr)OCCO2)cc1`: the T/C is 98 % of control and 105 % of control under setting [7]; 95 % of control and 100 % of control under setting [11]; 101 % of control and 91 % of control under setting [8]; 97 % of control and 98 % of control under setting [12]; 97 % of control and 98 % of control under setting [9]; 98 % of control and 108 % of control under setting [13].

As to `CCOC(=O)NC1=C(Cl)C(=O)C(NC(=O)OCC)=C(Cl)C1=O`, the T/C is 102 % of control under setting [14] and 92 % of control under setting [15].

As to `BrCC(Br)c1ccccc1` (stereo not drawn), the T/C runs as follows: under setting [14], 91 % of control; under setting [15], 91 % of control; under setting [16], 98 % of control.

In the case of `CCCCCCCCCCCCCCP(I)(N(C)C)(N(C)C)N(C)C`, the T/C is 107 % of control (dose: 0.78 mg/kg/injection, schedule: Q04DX002 (ip), vehicle: saline); 113 % of control (dose: 1.56 mg/kg/injection, schedule: Q04DX002 (ip), vehicle: saline); 113 % of control (dose: 3.13 mg/kg/injection, schedule: Q04DX002 (ip), vehicle: saline).
